Experimental findings from US6559339B1, “Method for crystallizing carboxylic acid” (Rhodia Fiber & Resin Intermediates, priority 1998, dated 2003) are described below.

The series is described as follows: heating test: absorbance at 454 nm of ammonium adipate solutions after heating the adipic acid batches. As to conditions: 50 g heated to 215° C. for 205 min, then placed in 415 ml aqueous 5% ammonia solution, reference adipic acid (A) = 1. Type of series: physicochemical. How it is done: The adipic acid batches (A) and (B) are subjected to a heating test. This test consists in heating 50 g of each batch to 215° C. for 205 min and then placing each of them in 415 ml of aqueous 5% ammonia solution. The absorbence at 454 nm of the ammonium adipate solutions obtained is then measured.
The results below are obtained, expressed as relative absorbences, the reference adipic acid (A) representing the value 1:
This test consists in heating 50 g of each batch to 215° C. for 205 min and then placing each of them in 415 ml of aqueous 5% ammonia solution.
The absorbance at 454 nm of the ammonium adipate solutions obtained is then measured.
The following results are obtained, expressed as relative absorbances, the reference adipic acid (A) representing the value 1: […]

Consider `O=C(O)CCCCC(=O)O` [adipic acid (A), adipic acid, reference compound], for which the “Relative absorbance at 454 nm” value turned out to be 1 and the “relative absorbence at 454 nm” value worked out at 1. Turning to `O=C(O)CCCCC(=O)O` [adipic acid (B), adipic acid], the “relative absorbence at 454 nm” value is recorded as 0.25.

`O=C(O)CCCCC(=O)O` [adipic acid (C), adipic acid]: for the setting “listed as C”, the “Relative absorbance at 454 nm” value is on record as 0.3.

On to `O=C(O)CCCCC(=O)O` [adipic acid (D), adipic acid], for which the “Relative absorbance at 454 nm” value (listed as D) is on record as 0.2.

On to `O=C(O)CCCCC(=O)O` [adipic acid (E), adipic acid], for which the “Relative absorbance at 454 nm” value (listed as E) turned out to be 0.5.
